Data as given in patent publication US6166000A, “Methods for preparation and use of 1α,24(S)-Dihydroxy vitamin . D.sub2” (priority 1995, dated 2000).
Entries after “also recorded” stand apart in the source; their conditions may differ.

What was measured:
bovine thymus VDR = biological target: T1, bovine thymus VDR (Bos taurus, UniProt Q28037); test: Radioreceptor assay, displacement of 3H-1α,25-(OH)2 D3 tracer (Incstar kit); type: binding; settings: in words
T1 construct: commercially available kit of bovine thymus VDR; purchased Incstar (Stillwater, Minn.); host or cells: bovine thymus
T1 sequence (Q28037 1-426): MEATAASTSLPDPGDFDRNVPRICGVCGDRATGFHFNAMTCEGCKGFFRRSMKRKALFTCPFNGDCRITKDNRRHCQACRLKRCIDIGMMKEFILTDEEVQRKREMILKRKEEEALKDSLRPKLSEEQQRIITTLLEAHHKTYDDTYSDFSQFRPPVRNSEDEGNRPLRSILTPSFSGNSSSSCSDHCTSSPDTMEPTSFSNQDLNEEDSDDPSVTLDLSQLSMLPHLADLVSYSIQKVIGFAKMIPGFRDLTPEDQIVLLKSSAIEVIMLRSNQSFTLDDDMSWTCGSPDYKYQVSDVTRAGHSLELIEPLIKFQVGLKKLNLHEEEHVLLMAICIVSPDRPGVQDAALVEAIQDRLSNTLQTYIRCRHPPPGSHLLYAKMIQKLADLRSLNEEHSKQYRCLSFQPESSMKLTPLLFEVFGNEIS
Excerpt: Purified 1α,24(S)-(OH)2 D2 was quantitated by photodiode array spectrophotometry and assayed in the radioreceptor assay.
The purified 1α,24(R)-(OH)2 D2 and 1α,24(S)-(OH)2 D2 epimers were quantitated by ultraviolet spectroscopy. The concentration of 1α,24(R)-(OH)2 D2 required to produce the same displacement of ^3 H-1α,25-(OH)2 D3 tracer from the receptor was 20 to 30 times that required for 1α,24(S)-(OH)2 D2, as shown in FIG. 4.

[1] = Blood metabolite levels in osteoporotic women administered 1α-OH-D2; type: in vivo; settings: one day after a single 2 μg dose of 1α-OH-D2; human females
Method: An increase in the production of 1α,24(S)-(OH)2 D2 relative to 1α,25-(OH)2 D2 has also been observed by the present inventors in human females who received 1α-OH-D2 as part of an investigation of that drug for the treatment of osteoporosis. Following either a single dose of 2 μg of 1α-OH-D2 or daily doses of 8 μg/day for one week, blood was collected and analyzed for the metabolites 1α,24(S)-(OH)2 D2 and 1α,25-(OH)2 D2. Lipid was extracted from the blood, and the metabolites were purified by HPLC using standard methods and quantified with the radioreceptor assay produced by Incstar (Stillwater, Minn.). One day after a single 2 μg dose, the level of 1α,24(S)-(OH)2 D2 was undetectable with the 1α,25-(OH)2 D2 level being approximately 11 pg/ml. In contrast, one day following the last dose of 8 μg, the level of 1α,24(S)-(OH)2 D2 averaged 9 pg/ml with the 1α,25-(OH)2 D2 level averaging 30 pg/ml.

[2] = system: postmenopausal osteoporotic women; test: Dose ranging study in postmenopausal osteoporotic women; type: in vivo, human; settings: oral 0.5 to 8.0 μg/day, escalated weekly over five weeks
Method: Twenty postmenopausal osteoporotic women are enrolled in an open label study.
On admission to the study, all patients receive instruction on selecting a daily diet containing 400 to 600 mg of calcium. Compliance to this diet is verified at weekly intervals by 24-hour food records and by interviews with each patient.
All patients complete a one-week baseline period, a five-week treatment period, and a one-week post-treatment observation period. During the treatment period, patients orally self-administer 1α,24(S)-dihydroxyvitamin D2 at an initial dose of 0.5 μg/day for the first week, and at successively higher doses of 1.0, 2.0, 4.0, and 8.0 μg/day in each of the following four weeks. All doses are administered before breakfast.
Blood and urine chemistries are monitored on a weekly basis throughout the study. Key blood chemistries include fasting serum levels of-calcium, phosphorus, osteocalcin, creatinine, and blood urea nitrogen. Key urine chemistries include 24-hour excretion of calcium, phosphorus, and creatinine.

[3] = system: healthy postmenopausal women; test: Prophylaxis of postmenopausal bone loss; type: in vivo, human; settings: at or above 1.0 μg/day, 24 to 36 months
Method: A clinical study is conducted with healthy postmenopausal women having ages between 55 and 60 years. The study involves up to 80 patients randomly divided into two treatment groups, and continues for 24 to 36 months. One treatment group receives a constant dosage of 1α,24(S)-dihydroxy vitamin D2 (u.i.d.; a dose level at or above 1.0 μg/day) and the other receives a matching placebo. The study is conducted as indicated in Example 2 above.

[4] = system: men and women with renal disease undergoing chronic hemodialysis; test: Management of hypocalcemia and metabolic bone disease in chronic hemodialysis patients; type: in vivo, human; settings: greater than 3.0 μg/day, twelve months; double-isotope technique
Method: A twelve-month, double-blind, placebo-controlled clinical trial is conducted with thirty men and women with renal disease who are undergoing chronic hemodialysis. […] Efficacy is evaluated by pre- and post-treatment comparisons of the two patient groups with regard to (a) direct measurements of intestinal calcium absorption, (b) total body calcium retention, (c) radial and spinal bone mineral density, or (d) determinations of serum calcium. Safety is evaluated by regular monitoring of serum calcium.

Human keratinocytes = test: Epidermal cell differentiation and proliferation testing; type: cell-based; settings: 0.05 to 5 μg/ml
Method: Human keratinocytes are cultured according to known modifications of the system originally described by Rheinwald and Green (Cell, vol. 6, p. 331 (1975)). The 1α,24(S)-dihydroxy vitamin D2, dissolved in ethanol, is added to cells to yield a variety of concentrations between 0.05 and 5 μg/ml with the ethanol concentration not to exceed 0.5% v/v. Control cultures are supplemented with ethanol at a final concentration of 0.5% v/v.
Differentiation and proliferation of epidermal cells in culture is examined by:
1. quantitation of cornified envelopes;
2. quantitation of cell density of cells attached to disks;
3. monitoring transglutaminase activity; or
4. monitoring DNA synthesis by incorporation of ^3 H-thymidine.

[5] = system: human cancer cell lines BCA-1 or ZR-75-1 (breast) and COL-1 (colon); test: Antiproliferative activity in human cancer cell lines (thymidine incorporation); type: cell-based; settings: dose-response
Method: Dose-response studies are conducted with 1α,24(S)-(OH)2 D2 in a battery of human cancer cell lines. These cell lines include, but are not limited to, the following: BCA-1 or ZR-75-1 (breast) and COL-1 (colon), as described by Shieh, H. L. et al. Chem. Biol. Interact., vol. 81, pp. 35-55 (1982). In this study, appropriate solvents are used as negative controls.

C=C1/C(=C\C=C2/CCC[C@]3(C)[C@@H]([C@H](C)/C=C/[C@@](C)(O)C(C)C)CC[C@@H]23)C[C@@H](O)C[C@@H]1O [1α,24(S)-(OH)2 D2, 1α,24(S)-dihydroxy Vitamin D2]
affinity for VDR relative to 1α,25-(OH)2 D3 (bovine thymus VDR): two-fold less competitive; also recorded: two-fold lower affinity
blood level of metabolite [1]: undetectable
routinely monitored serum parameters [2]: no effect
serum osteocalcin levels [2]: increases
urinary excretion of hydroxyproline [2]: nor does it increase
monitored safety parameters, long-term administration [3]: confirm the safety
intestinal calcium absorption [4]: significantly increases
DNA synthesis (3H-thymidine incorporation) vs control cultures (Human keratinocytes): lower DNA synthesis
cell density of attached cells vs control cultures (Human keratinocytes): fewer attached cells
cornified envelopes vs control cultures (Human keratinocytes): more cornified envelopes
transglutaminase activity vs control cultures (Human keratinocytes): higher transglutaminase activity
antiproliferative activity (inhibition of thymidine incorporation) [5]: potent (and reversible) antiproliferative activity
